How the values were obtained:
[1] = tested on: MOLM-13 cells; experiment: MOLM-13 Cell Proliferation Assay (indicator of DHODH inhibition); assay type: cell-based; conditions: Homo sapiens, 72 Hours of culture, CellTiter-Glo, no uridine
How it was run: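 Low-passage MOLM-13 cells (10^4/well) in RPMI 1640 + 10% FBS exposed to compound (0.5% DMSO final) for 72 h at 37 °C, 5% CO2. Viability read by CellTiter-Glo luminescence; growth reflects de novo pyrimidine synthesis dependent on DHODH.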

[2] = tested on: MOLM-13 cells; experiment: MOLM-13 Uridine Rescue Assay; assay type: cell-based; conditions: Homo sapiens; MOLM-13 cell proliferation with 100 μM Uridine added, 72 Hours of culture
Experimental: The following assay was conducted to measure proliferation of MOLM-13 cells in the presence of each compound studied. This assay was included as an indicator of DHODH inhibition, as growth of MOLM-13 cells is known to depend on synthesis of pyrimidines using the de novo pathway, which can be blocked by inhibition of DHODH. • 1. MOLM-13 cells were cultured in RPMI 1640 medium+10% Fetal Bovine Serum (FBS). Only low passage cells (<20) were used for the compound tests • 2. On day 1, Log-phase growing Molm-13 Cells were counted and diluted to 10^5 cells/mL in RPMI 1640 medium+10% FBS • 3. 100 μL of diluted MOLM-13 cells in 96 well white plates were seeded, for a final density of 10^4 cells/well. • 4. 0.5 μL of pre-diluted 200× compounds or DMSO control was added to each well. The final DMSO concentration was 0.5%. • 5. After 72 Hours of culture at 37° C., 5% CO2, the plates were taken out and cooled to RT, then 50 μL CellTiter-Glo® (Promega) was added, and the composition was mixed at RT for 10 minutes. • 6. The plates were then read by ViewLux (Speed-fast, Gain-High, Bining-1X, 5 seconds).
Several compounds were also tested in a Uridine rescue assay. In the Uridine rescue assay, using the procedure in Example 1 above, an additional plate of MOLM-13 cell cultures was prepared, to which 100 μM of Uridine was added in step 3 of the process.

IC50 [1] [nM] | IC50 [2] [nM] | Compound
3.5 | 18800 | Cc1ccc(C2c3[nH]c4cc(F)c(Cl)cc4c3CCN2c2nccc(C(F)(F)F)n2)cc1 (stereo not drawn) [Compound 72, 6-chloro-7-fluoro-1-(4-methylphenyl)-2-[4-(trifluoromethyl)pyrimidin-2-yl]-2,3,4,9-tetrahydro-1H-pyrido[3,4-b]indole]
1.9 | 8270 | Fc1cc2[nH]c3c(c2cc1Cl)CCN(c1nccc(C(F)(F)F)n1)C3c1cccc(F)c1F (stereo not drawn) [Compound 108, 6-chloro-1-(2,3-difluorophenyl)-7-fluoro-2-[4-(trifluoromethyl)pyrimidin-2-yl]-2,3,4,9-tetrahydro-1H-pyrido[3,4-b]indole]
0.6 | 14900 | Fc1cc2[nH]c3c(c2cc1Cl)CCN(c1nc(C(F)(F)F)cc(C(F)(F)F)n1)C3c1cccc(F)c1F (stereo not drawn) [Compound 157, 2-[4,6-bis(trifluoromethyl)pyrimidin-2-yl]-6-chloro-1-(2,3-difluorophenyl)-7-fluoro-2,3,4,9-tetrahydro-1H-pyrido[3,4-b]indole]
1.1 | 17500 | Cc1ccc(C2c3[nH]c4ccc(Cl)c(F)c4c3CCN2c2nccc(C(F)(F)F)n2)c(F)c1F (stereo not drawn) [Compound 197, 6-chloro-1-(2,3-difluoro-4-methylphenyl)-5-fluoro-2-[4-(trifluoromethyl)pyrimidin-2-yl]-2,3,4,9-tetrahydro-1H-pyrido[3,4-b]indole]
1 | 7600 | Cc1cc(C(F)(F)F)nc(N2CCc3c([nH]c4ccc(Cl)cc34)C2c2ccc(C)c(F)c2F)n1 (stereo not drawn) [Compound 213, 6-chloro-1-(2,3-difluoro-4-methylphenyl)-2-[4-methyl-6-(trifluoromethyl)pyrimidin-2-yl]-2,3,4,9-tetrahydro-1H-pyrido[3,4-b]indole]
1.1 | 19300 | Cc1ccc(C2c3[nH]c4c(N)cc(Cl)cc4c3CCN2c2nccc(C(F)(F)F)n2)cc1 (stereo not drawn) [Compound 231, 6-chloro-1-(4-methylphenyl)-2-[4-(trifluoromethyl)pyrimidin-2-yl]-2,3,4,9-tetrahydro-1H-pyrido[3,4-b]indol-8-amine]
0.4 | 12400 | Cc1ccc([C@H]2c3[nH]c4ccc(Cl)cc4c3CCN2c2nccc(C(F)(F)F)n2)c(F)c1F [Compound 233, (1S)-6-chloro-1-(2,3-difluoro-4-methylphenyl)-2-[4-(trifluoromethyl)pyrimidin-2-yl]-2,3,4,9-tetrahydro-1H-pyrido[3,4-b]indole]
0.5 | 8550 | Cc1ccc(C2c3[nH]c4c(N)cc(Cl)cc4c3CCN2c2nccc(C(F)(F)F)n2)c(F)c1F (stereo not drawn) [Compound 248, 6-chloro-1-(2,3-difluoro-4-methylphenyl)-2-[4-(trifluoromethyl)pyrimidin-2-yl]-2,3,4,9-tetrahydro-1H-pyrido[3,4-b]indol-8-amine]
1.9 | 6560 | Cc1nc(C)nc(N2CCc3c([nH]c4ccc(Cl)cc34)C2c2ccc(C)c(F)c2F)n1 (stereo not drawn) [Compound 253, 6-chloro-1-(2,3-difluoro-4-methylphenyl)-2-(4,6-dimethyl-1,3,5-triazin-2-yl)-2,3,4,9-tetrahydro-1H-pyrido[3,4-b]indole]
2.2 | 6910 | Cc1ccc(C2c3[nH]c4ccc(Cl)cc4c3CCN2c2nccc(C(F)(F)F)n2)c(F)c1 (stereo not drawn) [Compound 254, 6-chloro-1-(2-fluoro-4-methylphenyl)-2-[4-(trifluoromethyl)pyrimidin-2-yl]-2,3,4,9-tetrahydro-1H-pyrido[3,4-b]indole]
2.2 | 15600 | N#Cc1ccc(C2c3[nH]c4ccc(Cl)cc4c3CCN2c2nccc(C(F)(F)F)n2)c(F)c1 (stereo not drawn) [Compound 255, 4-{6-chloro-2-[4-(trifluoromethyl)pyrimidin-2-yl]-2,3,4,9-tetrahydro-1H-pyrido[3,4-b]indol-1-yl}-3-fluorobenzonitrile]
0.9 | 20900 | Cc1ccc(C2c3[nH]c4ccc(Br)cc4c3CCN2c2nccc(C(F)(F)F)n2)cc1 (stereo not drawn) [Compound 264, 6-bromo-1-(4-methylphenyl)-2-[4-(trifluoromethyl)pyrimidin-2-yl]-2,3,4,9-tetrahydro-1H-pyrido[3,4-b]indole]
3 | 10700 | Cc1ccc(C2c3[nH]c4ccc([N+](=O)[O-])cc4c3CCN2c2nccc(C(F)(F)F)n2)cc1 (stereo not drawn) [Compound 265, 1-(4-methylphenyl)-6-nitro-2-[4-(trifluoromethyl)pyrimidin-2-yl]-2,3,4,9-tetrahydro-1H-pyrido[3,4-b]indole]
3.7 | 22700 | Cc1ccc2[nH]c3c(c2c1)CCN(c1nccc(C(F)(F)F)n1)C3c1ccc(C)c(F)c1F (stereo not drawn) [Compound 271, 1-(2,3-difluoro-4-methylphenyl)-6-methyl-2-[4-(trifluoromethyl)pyrimidin-2-yl]-2,3,4,9-tetrahydro-1H-pyrido[3,4-b]indole]
7.9 | 7680 | Cc1cc(N)c2[nH]c3c(c2c1)CCN(c1nccc(C(F)(F)F)n1)C3c1ccc(C)c(F)c1F (stereo not drawn) [Compound 272, 1-(2,3-difluoro-4-methylphenyl)-6-methyl-2-[4-(trifluoromethyl)pyrimidin-2-yl]-2,3,4,9-tetrahydro-1H-pyrido[3,4-b]indol-8-amine]
7.5 | 29700 | Cc1ccc(C2c3[nH]c4ccc(Cl)c(N)c4c3CCN2c2nccc(C(F)(F)F)n2)c(F)c1F (stereo not drawn) [Compound 273, 6-chloro-1-(2,3-difluoro-4-methylphenyl)-2-[4-(trifluoromethyl)pyrimidin-2-yl]-2,3,4,9-tetrahydro-1H-pyrido[3,4-b]indol-5-amine]
1.7 | 4810 | N#Cc1ccc(C2c3[nH]c4ccc(Cl)cc4c3CCN2c2nccc(C(F)(F)F)n2)c(F)c1F (stereo not drawn) [Compound 278, 4-{6-chloro-2-[4-(trifluoromethyl)pyrimidin-2-yl]-2,3,4,9-tetrahydro-1H-pyrido[3,4-b]indol-1-yl}-2,3-difluorobenzonitrile]
23.2 | 11500 | Cc1ccc(C2c3[nH]c4cc(N)c(Cl)cc4c3CCN2c2nccc(C(F)(F)F)n2)c(F)c1F (stereo not drawn) [Compound 282, 6-chloro-1-(2,3-difluoro-4-methylphenyl)-2-[4-(trifluoromethyl)pyrimidin-2-yl]-2,3,4,9-tetrahydro-1H-pyrido[3,4-b]indol-7-amine]
12.9 | 12200 | Cc1nc(C)nc(N2CCc3c([nH]c4ccc(Cl)cc34)C2c2ccc(N3CCOCC3)c(F)c2F)n1 (stereo not drawn) [Compound 284, 6-chloro-1-[2,3-difluoro-4-(morpholin-4-yl)phenyl]-2-(4,6-dimethyl-1,3,5-triazin-2-yl)-2,3,4,9-tetrahydro-1H-pyrido[3,4-b]indole]
0.4 | – | O=C(O)CCCNc1ncc([C@H]2c3[nH]c4ccc(Cl)cc4c3CCN2c2nc(C(F)(F)F)nc(C(F)(F)F)n2)cn1 [Compound 538, 4-[(5-{(1S)-2-[4,6-bis(trifluoromethyl)-1,3,5-triazin-2-yl]-6-chloro-2,3,4,9-tetrahydro-1H-pyrido[3,4-b]indol-1-yl}pyrimidin-2-yl)amino]butanoic acid]
12 | – | O=C(O)COCCNc1ncc([C@H]2c3[nH]c4ccc(Cl)cc4c3CCN2c2nc(C(F)(F)F)nc(C(F)(F)F)n2)cn1 [Compound 539, {2-[(5-{(1S)-2-[4,6-bis(trifluoromethyl)-1,3,5-triazin-2-yl]-6-chloro-2,3,4,9-tetrahydro-1H-pyrido[3,4-b]indol-1-yl}pyrimidin-2-yl)amino]ethoxy}acetic acid]
18.4 | – | Cc1ccc(C2c3[nH]c4cc(F)c(Cl)cc4c3CCN2c2nc(Cl)cc(N(C)C)n2)cc1 (stereo not drawn) [Cpd 17, 6-chloro-2-[6-chloro-7-fluoro-1-(4-methylphenyl)-1,3,4,9-tetrahydro-2H-pyrido[3,4-b]indol-2-yl]-N,N-dimethylpyrimidin-4-amine]
7.4 | – | Cc1ccc(C2c3[nH]c4cc(F)c(Cl)cc4c3CCN2c2nc(C)c(F)c(C)n2)cc1 (stereo not drawn) [Cpd 106, 6-chloro-7-fluoro-2-(5-fluoro-4,6-dimethylpyrimidin-2-yl)-1-(4-methylphenyl)-2,3,4,9-tetrahydro-1H-pyrido[3,4-b]indole]
0.7 | – | Fc1c(Cl)ccc(C2c3[nH]c4ccc(Cl)cc4c3CCN2c2nccc(C(F)(F)F)n2)c1F (stereo not drawn) [Cpd 144, 6-chloro-1-(4-chloro-2,3-difluorophenyl)-2-[4-(trifluoromethyl)pyrimidin-2-yl]-2,3,4,9-tetrahydro-1H-pyrido[3,4-b]indole]

Compound | IC50 [1] [nM] | IC50 [2] [nM]
Cc1ccc(C2c3[nH]c4c(O)cc(Cl)cc4c3CCN2c2nccc(C(F)(F)F)n2)c(F)c1F (stereo not drawn) [Compound 220, 6-chloro-1-(2,3-difluoro-4-methylphenyl)-2-[4-(trifluoromethyl)pyrimidin-2-yl]-2,3,4,9-tetrahydro-1H-pyrido[3,4-b]indol-8-ol] | 1.1 | 6700
